Data taken from patent US20240174643A1, “SOS1 PROTEIN DEGRADERS, PHARMACEUTICAL COMPOSITIONS THEREOF, AND THEIR THERAPEUTIC APPLICATIONS” (Bio TheryX, Inc., priority 2021, published 2024).

Key:
Type in all cases: cell-based
[1] = system: SW480 (G12V) cells; experiment: Cell viability assay (CELLTITER-GLO), SW480 cells; conditions: Homo sapiens, 72 h, 3 days at 37° C., CELLTITER-GLO luminescence, read-out: Inhibition of Cancerous Cells IC50 (μM) SW480 (G12V)
Protocol: (§1) AsPC-1, 1358, and SW48 cells were cultured in RPMI 1640 media supplemented with 10% fetal bovine serum, streptomycin, and penicillin. Lovo and SW480 cells were cultured in DMEM media supplemented with 10% fetal bovine serum, streptomycin, and penicillin. The cell lines were plated in their respective medium supplemented with 2.5% fetal bovine serum, streptomycin, and penicillin. All cell lines were plated in white walled 96-well plates at 2,000 cells/well or 384-well plates at 500 cells/well, except Lovo, which were plated at 4,000 or 1,000 cells/well, respectively. The cells were incubated in DMSO (control) or a compound for 3 days at 37° C. under 5% CO2. A CELLTITER-GLO® reagent (100 μL) was then added to each well. After a 10 min incubation with shaking, luminescence was measured using an ENVISION® multimode plate reader.

[2] = system: Lovo (G13D) cells; experiment: Cell viability assay (CELLTITER-GLO), Lovo cells; conditions: Homo sapiens, 72 h, 3 days at 37° C., CELLTITER-GLO luminescence, read-out: Inhibition of Cancerous Cells IC50 (μM) Lovo (G13D)
Protocol: as §1

[3] = system: SW48 (wt) cells; experiment: Cell viability assay (CELLTITER-GLO), SW48 cells; conditions: Homo sapiens, 72 h, 3 days at 37° C., CELLTITER-GLO luminescence, read-out: Inhibition of Cancerous Cells IC50 (μM) SW48 (wt)
Protocol: as §1

[4] = system: AsPC-1 (G12D) cells; experiment: Cell viability assay (CELLTITER-GLO), AsPC-1 cells; conditions: Homo sapiens, ASPC1, 72 h, 3 days at 37° C., CELLTITER-GLO luminescence, read-out: Inhibition of Cancerous Cells IC50 (μM) AsPC-1 (G12D)
Protocol: as §1

[5] = system: H358 (G12C) cells; experiment: Cell viability assay (CELLTITER-GLO), H358 cells; conditions: Homo sapiens, NCI-H358, 72 h, 3 days at 37° C., CELLTITER-GLO luminescence, read-out: Inhibition of Cancerous Cells IC50 (μM) H358 (G12C)
Protocol: as §1

| IC50 [1] [µM] | IC50 [2] [µM] | IC50 [3] [µM] | IC50 [4] [µM] | IC50 [5] [µM] | SMILES |
| --- | --- | --- | --- | --- | --- |
| 1.7 | 0.69 | 2.2 | 2.3 | 1.9 | COc1cc2c(N[C@H](C)c3cccc(Br)c3)nc(C)nc2cc1OCCCCCCCN1CCN(C(=O)COc2ccc(N3CCC(=O)NC3=O)cc2)CC1 [Compound C1, (R)-1-(4-(2-(4-(7-((4-((1-(3-Bromophenyl)ethyl)amino)-6-methoxy-2-methyl-quinazolin-7-yl)oxy)heptyl)piperazin-1-yl)-2-oxoethoxy)phenyl)dihydropyrimidine-2,4(1H,3H)-dione] |
| 0.35 | 1.2 | 0.4 | 1.7 | 6.1 | COc1cc2c(N[C@H](C)c3cccc(Br)c3)nc(C)nc2cc1OCCCCCCCCCN1CCN(C(=O)CNc2ccc3c(N4CCC(=O)NC4=O)nn(C)c3c2)CC1 [Compound D8, (R)-1-(6-((2-(4-(9-((4-((1-(3-Bromophenyl)ethyl)amino)-6-methoxy-2-methyl-quinazolin-7-yl)oxy)nonyl)piperazin-1-yl)-2-oxoethyl)amino)-1-methyl-1H-indazol-3-yl)-dihydropyrimidine-2,4(1H,3H)-dione] |
| 0.36 | 1.1 | 0.67 | 4.5 | > 10 | COc1cc2c(N[C@H](C)c3cccc(Br)c3)nc(C)nc2cc1OCCCCCCCCCCCN1CCN(C(=O)CNc2ccc3c(N4CCC(=O)NC4=O)nn(C)c3c2)CC1 [Compound D7, (R)-1-(6-((2-(4-(11-((4-((1-(3-Bromophenyl)ethyl)amino)-6-methoxy-2-methyl-quinazolin-7-yl)oxy)undecyl)piperazin-1-yl)-2-oxoethyl)amino)-1-methyl-1H-indazol-3-yl)-dihydropyrimidine-2,4(1H,3H)-dione] |
| 0.57 | 0.63 | 2 | 1.5 | 1.9 | COc1cc2c(N[C@H](C)c3cccc(Br)c3)nc(C)nc2cc1OCCCCCCCCCN1CCN(C(=O)COc2cccc(N3CCC(=O)NC3=O)c2)CC1 [Compound C5, (R)-1-(3-(2-(4-(9-((4-((1-(3-Bromophenyl)ethyl)amino)-6-methoxy-2-methyl-quinazolin-7-yl)oxy)nonyl)piperazin-1-yl)-2-oxoethoxy)phenyl)dihydropyrimidine-2,4(1H,3H)-dione] |
| 0.66 | 0.93 | 2.1 | 2.1 | 3.4 | COc1cc2c(N[C@H](C)c3cccc(Br)c3)nc(C)nc2cc1OCCCCCCCCCCCN1CCN(C(=O)COc2ccc(N3CCC(=O)NC3=O)cc2)CC1 [Compound C3, (R)-1-(4-(2-(4-(11-((4-((1-(3-Bromophenyl)ethyl)amino)-6-methoxy-2-methyl-quinazolin-7-yl)oxy)undecyl)piperazin-1-yl)-2-oxoethoxy)phenyl)dihydropyrimidine-2,4(1H,3H)-dione] |
| 0.58 | 0.74 | 2.8 | 3.4 | 3.3 | COc1cc2c(N[C@H](C)c3cccc(Br)c3)nc(C)nc2cc1OCCCCCCCCCCCN1CCN(C(=O)COc2cccc(N3CCC(=O)NC3=O)c2)CC1 [Compound C6, (R)-1-(3-(2-(4-(11-((4-((1-(3-Bromophenyl)ethyl)amino)-6-methoxy-2-methyl-quinazolin-7-yl)oxy)undecyl)piperazin-1-yl)-2-oxoethoxy)phenyl)dihydropyrimidine-2,4(1H,3H)-dione] |
| 0.66 | 0.55 | 1.6 | 1.6 | 1.4 | COc1cc2c(N[C@H](C)c3cccc(Br)c3)nc(C)nc2cc1OCCCCCCCCCN1CCN(C(=O)COc2ccc(N3CCC(=O)NC3=O)cc2)CC1 [Compound C2, (R)-1-(4-(2-(4-(9-((4-((1-(3-Bromophenyl)ethyl)amino)-6-methoxy-2-methyl-quinazolin-7-yl)oxy)nonyl)piperazin-1-yl)-2-oxoethoxy)phenyl)dihydropyrimidine-2,4(1H,3H)-dione] |
| 0.73 | 0.94 | 1.3 | 1.4 | 1.2 | COc1cc2c(N[C@H](C)c3cccc(Br)c3)nc(C)nc2cc1OCCCCCCCN1CCN(C(=O)COc2cccc(N3CCC(=O)NC3=O)c2)CC1 [Compound C4, (R)-1-(3-(2-(4-(7-((4-((1-(3-Bromophenyl)ethyl)amino)-6-methoxy-2-methyl-quinazolin-7-yl)oxy)heptyl)piperazin-1-yl)-2-oxoethoxy)phenyl)dihydropyrimidine-2,4(1H,3H)-dione] |
| 1.2 | 1.4 | > 10 | > 10 | > 10 | COc1cc2c(N[C@H](C)c3cccc(Br)c3)nc(C)nc2cc1OCCCCCCCCCCCN1CCN(C(=O)CNc2cccc3c(N4CCC(=O)NC4=O)nn(C)c23)CC1 [Compound D10, (R)-1-(7-((2-(4-(11-((4-((1-(3-Bromophenyl)ethyl)amino)-6-methoxy-2-methyl-quinazolin-7-yl)oxy)undecyl)piperazin-1-yl)-2-oxoethyl)amino)-1-methyl-1H-indazol-3-yl)-dihydropyrimidine-2,4(1H,3H)-dione] |
